Test: molar heat capacity at constant pressure; xn = mol fraction of the nth substance listed
Conditions: 101 kPa, Liquid, Small sample (50 mg) DSC

N#Cc1ccccc1 [benzonitrile] + CCCCCCCCC
molar heat capacity at constant pressure [J/K/mol]
Conditions	285.15 K	288.15 K	293.15 K	298.15 K	303.15 K	308.15 K	313.15 K
x1 = 0.0239	275.6	276.8	278.87	280.98	283.18	285.48	287.76
x1 = 0.0499	272.83	274.01	276.02	278.11	280.26	282.5	284.75
x1 = 0.0989	267.94	269.06	270.98	272.97	275.01	277.16	279.34
x1 = 0.1984	258.53	259.47	261.13	262.87	264.72	266.66	268.65
x1 = 0.2543	253.53	254.27	255.7	257.26	258.97	260.77	262.65
x1 = 0.3	249.7	250.12	251.28	252.66	254.22	255.89	257.63
x1 = 0.4004	242.4	241.04	241.24	242.16	243.44	244.94	246.59
x1 = 0.4968	234.22	230.79	230.43	231.16	232.33	233.66	235.16
x1 = 0.6	217.32	216.76	217.29	218.27	219.53	220.89	222.37
x1 = 0.6996	202.24	202.88	204.1	205.37	206.74	208.21	209.67
x1 = 0.8	189.2	189.97	191.28	192.63	194	195.39	196.84
x1 = 0.9	176.74	177.48	178.75	180.02	181.35	182.67	184.01
x1 = 0.9498	170.45	171.18	172.4	173.65	174.93	176.22	177.48
x1 = 0.9805	166.46	167.19	168.41	169.64	170.89	172.18	173.44
x1 = 1	163.9	164.63	165.82	167.06	168.32	169.59	170.87

N#Cc1ccccc1 [benzonitrile] + CCCCCCCC
molar heat capacity at constant pressure [J/K/mol]
Conditions	283.15 K	288.15 K	293.15 K	298.15 K	303.15 K	308.15 K	313.15 K	318.15 K
x1 = 0.0219	246.32	248.19	250.11	252.1	254.14	256.24	258.38	260.56
x1 = 0.0576	243.69	245.52	247.38	249.32	251.3	253.34	255.43	257.56
x1 = 0.1021	240.66	242.38	244.17	246	247.92	249.87	251.88	253.94
x1 = 0.1999	234.51	235.9	237.41	239.04	240.74	242.5	244.34	246.23
x1 = 0.2998	229.04	229.53	230.52	231.82	233.28	234.82	236.47	238.12
x1 = 0.4002	224.38	222.59	223.06	224.03	225.26	226.66	228.12	229.73
x1 = 0.4637	219.83	217.33	217.69	218.58	219.78	221.13	222.51	–
x1 = 0.5001	215.93	213.9	214.32	215.28	216.5	217.77	219.26	220.74
x1 = 0.6001	203.15	203.61	204.57	205.76	207.09	208.41	209.85	211.38
x1 = 0.7003	192.17	193.38	194.65	195.97	197.33	198.73	200.16	201.61
x1 = 0.7999	182.68	183.92	185.2	186.53	187.88	189.25	190.63	192.02
x1 = 0.9	173.26	174.47	175.71	176.98	178.27	179.58	180.92	182.23
x1 = 0.95	168.41	169.62	170.83	172.09	173.36	174.65	175.96	177.25
x1 = 0.9801	165.44	166.62	167.83	169.07	170.34	171.61	172.89	174.17
x1 = 1	163.43	164.61	165.82	167.06	168.32	169.59	170.87	172.15

— the NIST ThermoML archive (doi:10.1021/je100145f)
